The structures appear in SMILES notation.

Chain of alanyl aminopeptidases (APN) (P15144 whole entry, species assumed): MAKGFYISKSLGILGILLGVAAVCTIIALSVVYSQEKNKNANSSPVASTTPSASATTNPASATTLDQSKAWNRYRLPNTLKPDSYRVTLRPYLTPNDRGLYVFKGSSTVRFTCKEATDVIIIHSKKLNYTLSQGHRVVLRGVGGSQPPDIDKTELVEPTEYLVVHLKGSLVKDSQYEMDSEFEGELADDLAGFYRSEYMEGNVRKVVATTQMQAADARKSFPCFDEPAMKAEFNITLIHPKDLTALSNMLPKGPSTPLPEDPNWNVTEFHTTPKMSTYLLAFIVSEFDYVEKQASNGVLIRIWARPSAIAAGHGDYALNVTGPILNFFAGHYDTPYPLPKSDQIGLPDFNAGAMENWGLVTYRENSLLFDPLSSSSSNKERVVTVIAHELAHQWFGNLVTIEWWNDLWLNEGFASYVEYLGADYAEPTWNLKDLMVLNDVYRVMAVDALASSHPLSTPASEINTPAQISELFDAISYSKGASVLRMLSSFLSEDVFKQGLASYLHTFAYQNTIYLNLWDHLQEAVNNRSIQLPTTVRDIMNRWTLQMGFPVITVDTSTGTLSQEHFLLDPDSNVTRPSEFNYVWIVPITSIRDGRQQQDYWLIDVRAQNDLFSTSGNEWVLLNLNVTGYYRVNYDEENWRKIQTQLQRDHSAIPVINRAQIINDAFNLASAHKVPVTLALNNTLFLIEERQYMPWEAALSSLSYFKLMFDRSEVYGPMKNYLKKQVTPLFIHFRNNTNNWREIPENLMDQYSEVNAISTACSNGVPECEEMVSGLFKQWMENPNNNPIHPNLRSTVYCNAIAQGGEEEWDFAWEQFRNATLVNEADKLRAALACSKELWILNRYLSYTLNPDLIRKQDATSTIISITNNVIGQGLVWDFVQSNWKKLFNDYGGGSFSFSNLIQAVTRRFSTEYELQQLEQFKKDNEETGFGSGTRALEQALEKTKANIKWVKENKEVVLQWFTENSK

One experiment addresses alanyl aminopeptidases (APN) (Homo sapiens, UniProt P15144). In words: Inhibition of alanyl aminopeptidase enzymatic activity, fluorogenic substrate (Ala)2-rhodamine 110. It counts as biochemical. The settings on record: Table 3, starred values = ID50; read-out: ID50 APN (values marked with *). As to the method: The inhibition characteristics measured are referred to as IC-50 values or ID50 values (the latter marked with “*”) for said enzyme. The enzymatic activity was determined by means of the fluorogenic substrate/product (Ala)2-rhodamine 110.
Consider `CCCCc1noc2c1/C(=N/O)CC(c1ccccc1)C2` (stereo not drawn) [A3.006], for which the IC50 amounted to 2.2 µM.

Still in this experiment, the particulars now being: Table 3, unstarred values; read-out: IC50APN.
On to `COC(=O)c1cccc(-c2ccc(/C=C3\C(=O)N(CCO)C(=O)C(C#N)=C3C)o2)c1` [A3.023], for which the IC50 amounted to 6.3 µM.
In the case of `CC(/C=C/c1ccco1)=N\NC(=O)COc1ccc(C(C)(C)C)cc1` [A3.269], the IC50 was determined as 50 µM.
Same read-out and setting: the value for `COc1ccc(C(=O)/C=C/c2ccc(-c3ccccc3)o2)cc1` [A3.236] was 41.2 µM; that for `Cc1ccc(/C=N/NC(=O)c2ccc(N3CCCC3=O)cc2)o1` [A3.241] was 44.2 µM; that for `Cc1ccc(/C=N\NC(=O)Cc2cccs2)o1` [A3.265] was 51.1 µM.
Take `Cc1nc(-c2ccc(Br)cc2)c(CC(=O)O)s1` [A3.313]: the IC50 was found to be 88.3 µM.
For the compound `O=C(Nc1ccccc1C(=O)N/N=C/c1ccco1)c1ccc(Cl)cc1Cl` [A3.092], the IC50 turned out to be 18.7 µM.
On the same count and under the same terms, the value for `CC(=O)Nc1ccc(C(=O)N/N=C/c2ccc(C)o2)cc1` [A3.183] was 29.7 µM.
For the compound `O=C(N/N=C/c1ccco1)c1ccccc1O` [A3.075], the IC50 amounted to 16 µM.
Same read-out and setting: the value for `Cc1ccc(C(=O)N/C(=C\c2ccco2)C(=O)N2CCCN(C)CC2)cc1C` [A3.194] was 32.1 µM; that for `O=C(CCc1ccccc1)N/N=C/c1ccco1` [A3.302] was 74.7 µM; that for `CC1CCN(C(=O)/C(=C\c2ccco2)NC(=O)c2ccc(Cl)cc2)CC1` [A3.022] was 6.2 µM.
Regarding `O=C(CNC(=O)c1ccccc1Br)N/N=C/c1ccoc1` [A3.192], the IC50 turned out to be 31.9 µM.

The same experiment, now with this note: Table 4, starred values = ID50; read-out: ID50 APN (values marked with *).
Regarding `O=C(CNC(=O)c1cccc(F)c1)N/N=C/c1ccco1` [A4.180], the IC50 was 155 µM.

Staying with this experiment, now noted: Table 4, unstarred values; read-out: IC50APN.
Regarding `O=C(N/N=C/c1ccco1)c1ccc(NC(=O)c2ccccc2Cl)cc1` [A4.103], the IC50 was determined as 32.5 µM.
As for `Cc1ccc(/C=N/NC(=O)c2ccccc2Cl)o1` [A4.044], the IC50 worked out at 17.7 µM.
Turning to `O=C(COc1cccc2ccccc12)N/N=C/c1ccco1` [A4.023], the IC50 turned out to be 12.9 µM.
Same read-out and setting: under `CC(/C=N/NC(=O)c1ccco1)=C\c1ccco1` [A4.088] stands 27.5 µM.

The same experiment, now with this note: Table 8, unstarred values; read-out: IC50APN.
Take `O=C1C(Cc2ccc3[nH]ccc3c2)NC(=S)N1c1ccccc1` (stereo not drawn) [A8.016]: the IC50 turned out to be 14.9 µM.

The experiment is the same for the next values; noted with them: Table 9, unstarred values; read-out: IC50APN.
In the case of `Cc1cccc(C)c1Nc1c(-c2ccccc2NC(=O)Nc2cccc(Cl)c2)nc2c(C(=O)NCC(C)C)cccn12` [A9.055], the IC50 was found to be 21.6 µM.
Take `Cc1ccc(C(=O)N/C(=C\c2ccco2)C(=O)N2CC3CC(C2)c2cccc(=O)n2C3)cc1` (stereo not drawn) [A9.023]: the IC50 amounted to 11 µM.
On to `COC(=O)c1ccccc1-c1ccc(/C=C2\C(=O)N(C)C(=O)C(C#N)=C2C)o1` [A9.071], for which the IC50 is 28.1 µM.
For `Cc1nc(NC(C)C(=O)O)c2nc(C)oc2n1` (stereo not drawn) [A9.108], the IC50 was determined as 65.8 µM.
Regarding `Cc1ccccc1C(=O)N1CCC(C(=O)Nc2ccc(OCc3ccccc3)cc2)CC1` [A9.102], the IC50 turned out to be 54 µM.
Regarding `CC(=O)NC1OCC(O)C(O)C1O` (stereo not drawn) [A9.014], the IC50 amounted to 7.3 µM.
Take `COC(=O)C1=C(N)N2C(=O)CSC2=C(C(=O)OC(C)C)C1` [A9.012]: the IC50 amounted to 5.9 µM.
As for `CCOC(=O)C1=C2SCC(=O)N2C(N)=C(C#N)C1` [A9.061], the IC50 was found to be 23.1 µM.

The same experiment, now with this note: Table 10; read-out: IC50APN.
With `Cc1ccc(C(=O)N/C(=C\c2ccco2)C(=O)N2CCCN(C)CC2)cc1C` [A10.007], the IC50 was found to be 32.1 µM.

Staying with this experiment, now noted: Table 11; read-out: IC50APN.
Take `CC(C)C/C=N/NC(=O)c1ccc([N+](=O)[O-])cc1Cl` [A11.010]: the IC50 stood at 15.6 µM.

The experiment is the same for the next values; noted with them: Table 12; read-out: IC50APN.
Consider `Cc1ccc(C(=O)N/C(=C/c2ccco2)C(=O)N(C)C)cc1` [A12.052], for which the IC50 was 32.5 µM.
On the same count and under the same terms, the value for `Cc1ccc(C(OCCC(=O)NO)c2ccc(C)cc2)cc1` [A12.029] was 14.2 µM.
With `O=C(CCOC(c1ccccc1)c1ccc(Br)cc1)NO` (stereo not drawn) [A12.008], the IC50 is 6.3 µM.
Still for that read-out and setting: under `O=C(NC(Sc1ccncn1)C(=O)c1ccccc1)c1ccccc1` (stereo not drawn) [A12.045] stands 26.9 µM.

Still in this experiment, the particulars now being: Table 13; read-out: IC50APN.
With `CC1=C(C#N)C(=O)N(CCO)C(=O)/C1=C\c1ccc(-c2cc(Cl)ccc2Cl)o1` [A13.001], the IC50 amounted to 1.2 µM.
On to `CCCOc1[nH]c(/N=C/c2ccccc2)c(C#N)c1C#N` [A13.010], for which the IC50 was 20 µM.

The record behind these values is patent publication US20070037752A1, “Novel alanyl-amino peptidase inhibitors for functionally influencing different cells and treating immunological, inflammatory, neuronal, and other diseases” (priority 2003, published 2007).
